According to US20100261768A1, “Bioavailable Compositions of Amorphous Alpha-(N-Sulfonamido)Acetamide Compound” (Bristol-Myers Squibb Company, priority 2009, published 2010):

Tests used:
[1] = bioavailability after particle size reduction; assay type: in vivo
Procedure: (§1) Unfortunately, (2R)-2-[[(4-chlorophenyl)sulfonyl][[2-fluoro-4-(1,2,4-oxadiazol-3-yl)phenyl]methyl]amino]-5,5,5-trifluoropentanamide has poor aqueous solubility that is often characterized as <1 ug/mL at about room temperature. […] Thus, it now appears that in order to provide optimal exposure of the API, an amorphous (non-crystalline) form of the active compound should be provided.

[2] = solubility of the compound in PVP-VA; assay type: physicochemical; details: at a temperature of about 100° C.
Procedure: In order to prepare the compositions hereinabove described, various preparation means available to the skilled artisan may be utilized. It is preferred that the compositions containing the active compound and PVP-VA be prepared by the methods of hot-melt extrusion or spray-drying, with hot-melt extrusion being more preferred. A processing temperature of about 150-160° C. is preferred for hot-melt extrusion processing of the active compound using apparatus available in the art.

aqueous solubility = assay type: physicochemical; details: aqueous medium; at about room temperature
Procedure: as §1

NC(=O)[C@@H](CCC(F)(F)F)N(Cc1ccc(-c2ncon2)cc1F)S(=O)(=O)c1ccc(Cl)cc1 [(2R)-2-[[(4-chlorophenyl)sulfonyl][[2-fluoro-4-(1,2,4-oxadiazol-3-yl)phenyl]methyl]amino]-5,5,5-trifluoropentanamide]
improvement in bioavailability by particle size reduction [1]: no appreciable improvement
soluble in PVP-VA [2]: less than 5%
solubility (aqueous solubility): < 1 µg/mL
